One substance from patent EP0308190A2, “Ultra mild skin cleansing toilet bar with selected mixed polymers” (THE PROCTER & GAMBLE COMPANY, priority 1987, dated 1989) can be followed below.

This series concerns skin epidermis.

Regarding Cocoyl Isethionate, the “Relative Skin Barrier Penetration Value” is on record as 40.
